# Experimental data: publication PMC9743148 (Annals of oncology : official journal of the European …, 2020)
# Tested on: patients with advanced solid tumors
# Assay: Treatment-emergent adverse events
# Format: in vivo, human
# [1] = Combined t.i.w. cohorts (n = 42)
compound,measurement,setting,value
C=CC(=O)N1CC[C@H](n2nc(C#Cc3cc(OC)cc(OC)c3)c3c(N)ncnc32)C1 [futibatinib],"Dry mouth TEAE, Grade 3",Combined q.d. cohorts (n = 44),0 (0) n (%)
same,"Dry mouth TEAE, Grade 4",Combined q.d. cohorts (n = 44),0 (0) n (%)
same,"Dry skin TEAE, Any grade",Combined q.d. cohorts (n = 44),6 (14) n (%)
same,"Dry skin TEAE, Grade 1",Combined q.d. cohorts (n = 44),6 (14) n (%)
same,"Dry skin TEAE, Grade 2",Combined q.d. cohorts (n = 44),0 (0) n (%)
same,"Dry skin TEAE, Grade 3",Combined q.d. cohorts (n = 44),0 (0) n (%)
same,"Dry skin TEAE, Grade 4",Combined q.d. cohorts (n = 44),0 (0) n (%)
same,"Fatigue TEAE, Any grade",Combined q.d. cohorts (n = 44),7 (16) n (%)
same,"Fatigue TEAE, Grade 1",Combined q.d. cohorts (n = 44),3 (7) n (%)
same,"Fatigue TEAE, Grade 2",Combined q.d. cohorts (n = 44),3 (7) n (%)
same,"Fatigue TEAE, Grade 3",Combined q.d. cohorts (n = 44),1 (2) n (%)
same,"Fatigue TEAE, Grade 4",Combined q.d. cohorts (n = 44),0 (0) n (%)
same,"Headache TEAE, Any grade",Combined q.d. cohorts (n = 44),2 (5) n (%)
same,"Headache TEAE, Grade 1",Combined q.d. cohorts (n = 44),0 (0) n (%)
same,"Headache TEAE, Grade 2",Combined q.d. cohorts (n = 44),1 (2) n (%)
same,"Headache TEAE, Grade 3",Combined q.d. cohorts (n = 44),1 (2) n (%)
same,"Headache TEAE, Grade 4",Combined q.d. cohorts (n = 44),0 (0) n (%)
same,"Hypercalcemia TEAE, Any grade",Combined q.d. cohorts (n = 44),0 (0) n (%)
same,"Hypercalcemia TEAE, Grade 1",Combined q.d. cohorts (n = 44),0 (0) n (%)
same,"Hypercalcemia TEAE, Grade 2",Combined q.d. cohorts (n = 44),0 (0) n (%)
same,"Hypercalcemia TEAE, Grade 3",Combined q.d. cohorts (n = 44),0 (0) n (%)
same,"Hypercalcemia TEAE, Grade 4",Combined q.d. cohorts (n = 44),0 (0) n (%)
same,"Hyperphosphatemia TEAE, Any grade",Combined q.d. cohorts (n = 44),30 (68) n (%)
same,"Hyperphosphatemia TEAE, Grade 1",Combined q.d. cohorts (n = 44),13 (30) n (%)
same,"Hyperphosphatemia TEAE, Grade 2",Combined q.d. cohorts (n = 44),10 (23) n (%)
same,"Hyperphosphatemia TEAE, Grade 4",Combined q.d. cohorts (n = 44),0 (0) n (%)
same,"Hyperphosphatemia TEAE, grade 3",Combined q.d. cohorts (n = 44),7 (16) n (%)
same,"Hypomagnesemia TEAE, Any grade",Combined q.d. cohorts (n = 44),3 (7) n (%)
same,"Hypomagnesemia TEAE, Grade 1",Combined q.d. cohorts (n = 44),3 (7) n (%)
same,"Hypomagnesemia TEAE, Grade 2",Combined q.d. cohorts (n = 44),0 (0) n (%)
same,"Hypomagnesemia TEAE, Grade 3",Combined q.d. cohorts (n = 44),0 (0) n (%)
same,"Hypomagnesemia TEAE, Grade 4",Combined q.d. cohorts (n = 44),0 (0) n (%)
same,"Hyponatremia TEAE, Any grade",Combined q.d. cohorts (n = 44),2 (5) n (%)
same,"Hyponatremia TEAE, Grade 1",Combined q.d. cohorts (n = 44),0 (0) n (%)
same,"Hyponatremia TEAE, Grade 2",Combined q.d. cohorts (n = 44),0 (0) n (%)
same,"Hyponatremia TEAE, Grade 3",Combined q.d. cohorts (n = 44),2 (5) n (%)
same,"Hyponatremia TEAE, Grade 4",Combined q.d. cohorts (n = 44),0 (0) n (%)
same,"Nausea TEAE, Any grade",Combined q.d. cohorts (n = 44),13 (30) n (%)
same,"Nausea TEAE, Grade 1",Combined q.d. cohorts (n = 44),8 (18) n (%)
same,"Nausea TEAE, Grade 2",Combined q.d. cohorts (n = 44),3 (7) n (%)
same,"Nausea TEAE, Grade 3",Combined q.d. cohorts (n = 44),2 (5) n (%)
same,"Nausea TEAE, Grade 4",Combined q.d. cohorts (n = 44),0 (0) n (%)
same,"Onycholysis TEAE, Any grade",Combined q.d. cohorts (n = 44),1 (2) n (%)
same,"Onycholysis TEAE, Grade 1",Combined q.d. cohorts (n = 44),1 (2) n (%)
same,"Onycholysis TEAE, Grade 2",Combined q.d. cohorts (n = 44),0 (0) n (%)
same,"Onycholysis TEAE, Grade 3",Combined q.d. cohorts (n = 44),0 (0) n (%)
same,"Onycholysis TEAE, Grade 4",Combined q.d. cohorts (n = 44),0 (0) n (%)
same,"Pyrexia TEAE, Any grade",Combined q.d. cohorts (n = 44),5 (11) n (%)
same,"Pyrexia TEAE, Grade 1",Combined q.d. cohorts (n = 44),3 (7) n (%)
same,"Pyrexia TEAE, Grade 2",Combined q.d. cohorts (n = 44),1 (2) n (%)
same,"Pyrexia TEAE, Grade 3",Combined q.d. cohorts (n = 44),1 (2) n (%)
same,"Pyrexia TEAE, Grade 4",Combined q.d. cohorts (n = 44),0 (0) n (%)
same,"Rash TEAE, Any grade",Combined q.d. cohorts (n = 44),1 (2) n (%)
same,"Rash TEAE, Grade 1",Combined q.d. cohorts (n = 44),1 (2) n (%)
same,"Rash TEAE, Grade 2",Combined q.d. cohorts (n = 44),0 (0) n (%)
same,"Rash TEAE, Grade 3",Combined q.d. cohorts (n = 44),0 (0) n (%)
same,"Rash TEAE, Grade 4",Combined q.d. cohorts (n = 44),0 (0) n (%)
same,"Stomatitis TEAE, Any grade",Combined q.d. cohorts (n = 44),9 (20) n (%)
same,"Stomatitis TEAE, Grade 1",Combined q.d. cohorts (n = 44),6 (14) n (%)
same,"Stomatitis TEAE, Grade 2",Combined q.d. cohorts (n = 44),2 (5) n (%)
same,"Stomatitis TEAE, Grade 3",Combined q.d. cohorts (n = 44),1 (2) n (%)
same,"Stomatitis TEAE, Grade 4",Combined q.d. cohorts (n = 44),0 (0) n (%)
same,"Treatment discontinuation because of TEAE, Any grade",Combined q.d. cohorts (n = 44),2 (5) n (%)
same,"Treatment discontinuation because of TEAE, Grade 1",Combined q.d. cohorts (n = 44),0 (0) n (%)
same,"Treatment discontinuation because of TEAE, Grade 2",Combined q.d. cohorts (n = 44),1 (2) n (%)
same,"Treatment discontinuation because of TEAE, Grade 3",Combined q.d. cohorts (n = 44),1 (2) n (%)
same,"Treatment discontinuation because of TEAE, Grade 4",Combined q.d. cohorts (n = 44),0 (0) n (%)
same,"Urinary tract infection TEAE, Any grade",Combined q.d. cohorts (n = 44),0 (0) n (%)
same,"Urinary tract infection TEAE, Grade 1",Combined q.d. cohorts (n = 44),0 (0) n (%)
same,"Urinary tract infection TEAE, Grade 2",Combined q.d. cohorts (n = 44),0 (0) n (%)
same,"Urinary tract infection TEAE, Grade 3",Combined q.d. cohorts (n = 44),0 (0) n (%)
same,"Urinary tract infection TEAE, Grade 4",Combined q.d. cohorts (n = 44),0 (0) n (%)
same,"Vomiting TEAE, Any grade",Combined q.d. cohorts (n = 44),11 (25) n (%)
same,"Vomiting TEAE, Grade 1",Combined q.d. cohorts (n = 44),6 (14) n (%)
same,"Vomiting TEAE, Grade 2",Combined q.d. cohorts (n = 44),3 (7) n (%)
same,"Vomiting TEAE, Grade 3",Combined q.d. cohorts (n = 44),2 (5) n (%)
same,"Vomiting TEAE, Grade 4",Combined q.d. cohorts (n = 44),0 (0) n (%)
same,"ALT increased TEAE, Any grade",[1],5 (12) n (%)
same,"ALT increased TEAE, Grade 1",[1],3 (7) n (%)
same,"ALT increased TEAE, Grade 2",[1],1 (2) n (%)
same,"ALT increased TEAE, Grade 3",[1],1 (2) n (%)
same,"ALT increased TEAE, Grade 4",[1],0 (0) n (%)
same,"AST increased TEAE, Any grade",[1],4 (10) n (%)
